According to patent US5358951A, “Angiotensin II receptor blocking 2, 3, 6 substituted quinazolinones” (American Cyanamid Company, priority 1993, dated 1994):

Test system: vasopressor response of angiotensin II
Assay: AII Challenge: antagonism of angiotensin II vasopressor response;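 on Response Average Change: post-dose Angiotensin II-evoked rise in systolic blood pressure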
Type: in vivo
Details: for inhibition in vivo at 3 mg/kg / inhibition in vivo at 1 mg/kg: Rattus norvegicus, iv
In short: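 Conscious male SHR (16-20 weeks) with aortic and caval cannulae received angiotensin II at 0.05 and 0.1 ug/kg i.v. before and 30-300 min after compound dosing (i.v., i.p. or oral). Blockade is expressed as % of each rat's predose rise in systolic pressure.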

[1] = 3 mg/kg I.V., AII 0.05 mcg/kg IV, 30 min post dose
[2] = 3 mg/kg I.V., AII 0.05 mcg/kg IV, 60 min post dose
[3] = 3 mg/kg I.V., AII 0.05 mcg/kg IV, 90 min post dose
[4] = 3 mg/kg I.V., AII 0.05 mcg/kg IV, 120 min post dose
[5] = 3 mg/kg I.V., AII 0.05 mcg/kg IV, 180 min post dose
[6] = 3 mg/kg I.V., AII 0.05 mcg/kg IV, 240 min post dose
[7] = 3 mg/kg I.V., AII 0.05 mcg/kg IV, 300 min post dose
[8] = 3 mg/kg I.V., AII 0.1 mcg/kg IV, 30 min post dose
[9] = 3 mg/kg I.V., AII 0.1 mcg/kg IV, 60 min post dose
[10] = 3 mg/kg I.V., AII 0.1 mcg/kg IV, 90 min post dose
[11] = 3 mg/kg I.V., AII 0.1 mcg/kg IV, 120 min post dose
[12] = 3 mg/kg I.V., AII 0.1 mcg/kg IV, 180 min post dose
[13] = 3 mg/kg I.V., AII 0.1 mcg/kg IV, 240 min post dose
[14] = 3 mg/kg I.V., AII 0.1 mcg/kg IV, 300 min post dose
[15] = 0.5 h, 3 mg/kg I.V., AII 0.05 mcg/kg IV, 30 min post dose
[16] = 0.5 h, 3 mg/kg I.V., AII 0.1 mcg/kg IV, 30 min post dose
[17] = 1 h, 3 mg/kg I.V., AII 0.05 mcg/kg IV, 60 min post dose
[18] = 1 h, 3 mg/kg I.V., AII 0.1 mcg/kg IV, 60 min post dose
[19] = 2 h, 3 mg/kg I.V., AII 0.05 mcg/kg IV, 120 min post dose
[20] = 2 h, 3 mg/kg I.V., AII 0.1 mcg/kg IV, 120 min post dose
[21] = 3 h, 3 mg/kg I.V., AII 0.05 mcg/kg IV, 180 min post dose
[22] = 3 h, 3 mg/kg I.V., AII 0.1 mcg/kg IV, 180 min post dose
[23] = 4 h, 3 mg/kg I.V., AII 0.05 mcg/kg IV, 240 min post dose
[24] = 4 h, 3 mg/kg I.V., AII 0.1 mcg/kg IV, 240 min post dose
[25] = 5 h, 3 mg/kg I.V., AII 0.05 mcg/kg IV, 300 min post dose
[26] = 5 h, 3 mg/kg I.V., AII 0.1 mcg/kg IV, 300 min post dose
[27] = […], 3 mg/kg I.V., AII 0.05 mcg/kg IV, 90 min post dose
[28] = […], 3 mg/kg I.V., AII 0.1 mcg/kg IV, 90 min post dose

CCCCc1nc2ccc([C@]3(C)C[C@@H]4CCCCN4O3)cc2c(=O)n1Cc1ccc(-c2ccccc2-c2nnn[nH]2)cc1 (relative stereo) [Example 68, Trans-2-Butyl-6-(hexahydro-2-methyl-2H-isoxazolo[2,3-a]pyridin-2-yl)-3-[[2'-(1H-tetrazol-5-yl)[1,1'-biphenyl]-4-yl]methyl]-4(3H)-quinazolinone]
Response Average Change [1]: 2.5 mmHg
Response Average Change [2]: 2.5 mmHg
Response Average Change [3]: 7.5 mmHg
Response Average Change [4]: 11 mmHg
Response Average Change [5]: 10 mmHg
Response Average Change [6]: 20 mmHg
Response Average Change [7]: 10 mmHg
Response Average Change [8]: 5 mmHg
Response Average Change [9]: 9 mmHg
Response Average Change [10]: 9 mmHg
Response Average Change [11]: 10 mmHg
Response Average Change [12]: 20 mmHg
Response Average Change [13]: 17.5 mmHg
Response Average Change [14]: 22.5 mmHg
inhibition in vivo at 3 mg/kg [15]: 95%
inhibition in vivo at 3 mg/kg [16]: 91%
inhibition in vivo at 3 mg/kg [17]: 95%
inhibition in vivo at 3 mg/kg [18]: 84%
inhibition in vivo at 3 mg/kg [19]: 79%
inhibition in vivo at 3 mg/kg [20]: 82%
inhibition in vivo at 3 mg/kg [21]: 81%
inhibition in vivo at 3 mg/kg [22]: 64%
inhibition in vivo at 3 mg/kg [23]: 61%
inhibition in vivo at 3 mg/kg [24]: 69%
inhibition in vivo at 3 mg/kg [25]: 81%
inhibition in vivo at 3 mg/kg [26]: 60%
inhibition in vivo at 3 mg/kg [27]: 85%
inhibition in vivo at 3 mg/kg [28]: 84%

CCCCc1nc2ccc([C@]3(C)C[C@@H]4CCC(C)(C)N4O3)cc2c(=O)n1Cc1ccc(-c2ccccc2-c2nnn[nH]2)cc1 (relative stereo) [Example 69, Trans-2-Butyl-6-(hexahydro-2,6,6-trimethylpyrrolo[1,2-b]isoxazol-2-yl)-3-[[2'-(1H-tetrazol-5-yl)[1,1'-biphenyl]-4-yl]methyl]-4(3H)-quinazolinone]
Response Average Change [1]: 0 mmHg
Response Average Change [2]: 2.5 mmHg
Response Average Change [3]: 2.5 mmHg
Response Average Change [4]: 5 mmHg
Response Average Change [5]: 2.5 mmHg
Response Average Change [6]: 5 mmHg
Response Average Change [7]: 10 mmHg
Response Average Change [8]: 0 mmHg
Response Average Change [9]: 0 mmHg
Response Average Change [10]: 25 mmHg
Response Average Change [11]: 2.5 mmHg
Response Average Change [12]: 0 mmHg
Response Average Change [13]: 7.5 mmHg
Response Average Change [14]: 12.5 mmHg
inhibition in vivo at 3 mg/kg [15]: 100%
inhibition in vivo at 3 mg/kg [16]: 100%
inhibition in vivo at 3 mg/kg [17]: 92%
inhibition in vivo at 3 mg/kg [18]: 100%
inhibition in vivo at 3 mg/kg [19]: 83%
inhibition in vivo at 3 mg/kg [20]: 94%
inhibition in vivo at 3 mg/kg [21]: 92%
inhibition in vivo at 3 mg/kg [22]: 100%
inhibition in vivo at 3 mg/kg [23]: 83%
inhibition in vivo at 3 mg/kg [24]: 81%
inhibition in vivo at 3 mg/kg [25]: 67%
inhibition in vivo at 3 mg/kg [26]: 69%
inhibition in vivo at 3 mg/kg [27]: 92%
inhibition in vivo at 3 mg/kg [28]: 94%

CCCCc1nc2ccc([C@@]3(c4ccccc4)C[C@@H]4CCCN4O3)cc2c(=O)n1Cc1ccc(-c2ccccc2-c2nnn[nH]2)cc1 (relative stereo) [Example 70, Cis-2-butyl-6-(hexahydro-2-phenylpyrrolo-[1,2-b]isoxazol-2-yl)-3-[[2'-(1H-tetrazol-5-yl)[1,1'-biphenyl]-4-yl]methyl]-4(3H)-quinazolinone]
Response Average Change (1 mg/kg i.v., AII 0.05 mcg/kg IV, 30 min post dose): 23.5 mmHg
Response Average Change (1 mg/kg i.v., AII 0.05 mcg/kg IV, 60 min post dose): 12.5 mmHg
Response Average Change (1 mg/kg i.v., AII 0.05 mcg/kg IV, 90 min post dose): 12.5 mmHg
Response Average Change (1 mg/kg i.v., AII 0.05 mcg/kg IV, 120 min post dose): 20 mmHg
Response Average Change (1 mg/kg i.v., AII 0.05 mcg/kg IV, 180 min post dose): 20 mmHg
Response Average Change (1 mg/kg i.v., AII 0.05 mcg/kg IV, 240 min post dose): 27.5 mmHg
Response Average Change (1 mg/kg i.v., AII 0.05 mcg/kg IV, 300 min post dose): 30 mmHg
Response Average Change (1 mg/kg i.v., AII 0.1 mcg/kg IV, 30 min post dose): 30 mmHg
Response Average Change (1 mg/kg i.v., AII 0.1 mcg/kg IV, 60 min post dose): 17.5 mmHg
Response Average Change (1 mg/kg i.v., AII 0.1 mcg/kg IV, 90 min post dose): 30.5 mmHg
Response Average Change (1 mg/kg i.v., AII 0.1 mcg/kg IV, 120 min post dose): 26 mmHg
Response Average Change (1 mg/kg i.v., AII 0.1 mcg/kg IV, 180 min post dose): 30 mmHg
Response Average Change (1 mg/kg i.v., AII 0.1 mcg/kg IV, 240 min post dose): 30 mmHg
Response Average Change (1 mg/kg i.v., AII 0.1 mcg/kg IV, 300 min post dose): 37.5 mmHg
inhibition in vivo at 1 mg/kg (0.5 h, 1 mg/kg i.v., AII 0.05 mcg/kg IV, 30 min post dose): 48%
inhibition in vivo at 1 mg/kg (0.5 h, 1 mg/kg i.v., AII 0.1 mcg/kg IV, 30 min post dose): 37%
inhibition in vivo at 1 mg/kg (1 h, 1 mg/kg i.v., AII 0.05 mcg/kg IV, 60 min post dose): 72%
inhibition in vivo at 1 mg/kg (1 h, 1 mg/kg i.v., AII 0.1 mcg/kg IV, 60 min post dose): 63%
inhibition in vivo at 1 mg/kg (2 h, 1 mg/kg i.v., AII 0.05 mcg/kg IV, 120 min post dose): 56%
inhibition in vivo at 1 mg/kg (2 h, 1 mg/kg i.v., AII 0.1 mcg/kg IV, 120 min post dose): 45%
inhibition in vivo at 1 mg/kg (3 h, 1 mg/kg i.v., AII 0.05 mcg/kg IV, 180 min post dose): 56%
inhibition in vivo at 1 mg/kg (3 h, 1 mg/kg i.v., AII 0.1 mcg/kg IV, 180 min post dose): 37%
inhibition in vivo at 1 mg/kg (4 h, 1 mg/kg i.v., AII 0.05 mcg/kg IV, 240 min post dose): 39%
inhibition in vivo at 1 mg/kg (4 h, 1 mg/kg i.v., AII 0.1 mcg/kg IV, 240 min post dose): 37%
inhibition in vivo at 1 mg/kg (5 h, 1 mg/kg i.v., AII 0.05 mcg/kg IV, 300 min post dose): 33%
inhibition in vivo at 1 mg/kg (5 h, 1 mg/kg i.v., AII 0.1 mcg/kg IV, 300 min post dose): 21%
inhibition in vivo at 1 mg/kg ([…], 1 mg/kg i.v., AII 0.05 mcg/kg IV, 90 min post dose): 72%
inhibition in vivo at 1 mg/kg ([…], 1 mg/kg i.v., AII 0.1 mcg/kg IV, 90 min post dose): 36%
